Results reported in patent US11987540B2, “Crystalline solids of 3-palmitoyl-amido-1,2-propanediol and 3-palmitoyl-amido-2-hydroxy-1-dimethoxytriphenylmethylether-propane and methods of making and using the same” (Geron Corporation, priority 2019, dated 2024).

Legend:
[1] = Solubility (dissolution) of the new crystalline polymorph used as substrate; format: physicochemical; conditions: polymorph from THF, 2-methyl-THF or DCM with triethylamine, heat/cool crystallization
Protocol: Crystalline solids were identified as a new polymorph of 3-palmitoyl-amido-1,2-propanediol using THF, 2-methyl-THF or DCM with triethylamine during a heat/cool induced crystallization. The heat/cool crystallization included solubilizing 3-palmitoyl-amido-1,2-propanediol in a solution of THF, and heating and maintaining the composition at 50° C. overnight. For 2-methyl-THF or DCM, the solution with palmitoyl-amido-1,2-propanediol was heated to 60° C. overnight to produce a solution. After cooling the samples back to 30° C., crystalline solids formed as slurries in the solutions of THF, 2-methyl-THF and DCM.

[2] = Screening of the solubility in various solvents and solvent mixtures; format: physicochemical
Protocol: A screening of the solubility of 3-palmitoyl-amido-1,2-propanediol was conducted with various solvents and solvent mixtures. Tetrahydrofuran (THF), 2-methyl-THF, dichloromethane (DCM), N-methyl-2-pyrrolidone (NMP), dimethylacetamide (DMAc), toluene, 2-methylbutan-2-ol (tAmOH), isopropylacetate (iPrOAc), dimethylsulfoxide (DMSO) and dimethylformamide (DMF) were identified as solvents for use in the studies. The effect of triethylamine on the solubility was also evaluated.

[3] = test system: cancer cell lines and human tumors; conditions: multitude of different cancer cell lines and human tumors; cited from earlier work
myelofibrosis = conditions: cited from earlier work
[4] = test system: template region of the RNA component of telomerase; conditions: cited from earlier work
telomerase = conditions: cited from earlier work

| solubility of the polymorph [1] | effect of triethylamine on the solubility ([2]; in the screened solvents (THF, 2-methyl-THF, DCM, NMP, DMAc, toluene, tAmOH, iPrOAc, DMSO, DMF)) | solubility ([2]; solvent dimethylacetamide (DMAc)) | solubility ([2]; solvent dimethylformamide (DMF)) | solubility ([2]; solvent dimethylsulfoxide (DMSO)) | Compound | cell proliferation [3] | bone marrow fibrosis (myelofibrosis; patients with myelofibrosis in complete remission) | clinical remission (myelofibrosis; patients with myelofibrosis) | binding affinity [4] | telomerase activity (telomerase) |
| --- | --- | --- | --- | --- | --- | --- | --- | --- | --- | --- |
| faster solubility | small effect | moderate solubility | moderate solubility | moderate solubility | CCCCCCCCCCCCCCCC(=O)NCC(O)CO (stereo not shown) [3-palmitoyl-amido-1,2-propanediol] | – | – | – | – | – |
| – | – | – | – | – | Imetelstat | effective against cell proliferation | reversal of bone marrow fibrosis | complete clinical remissions in certain patients | high affinity | inhibits telomerase activity |
